Measurements: publication PMC10900215 (JACS Au, 2024)
Where “and” joins values, the source holds several entries; their conditions need not be identical. Equal entries are not always repeated. Entries after “also recorded” stand apart in the source; their conditions may differ.

What was measured:
PRDM9 = PRDM9 (Homo sapiens, UniProt Q9NQV7); assay: Protein methyltransferases selectivity profile; type: biochemical; conditions: control compound
Source text: (§1) Remaining activity [%][a]
(§2) Methyltransferase Control IC50 (M) Control […]
(§3) concerning the buffer solution containing DMSO. The closer to 100% these values are, the weaker the […]
(§4) Table S2. Hook curve amplitudes derived from the TR-FRET ternary complex formation assay with all compounds in the paper. n = number of independent measurements (biological replicates).
(§5) Compound amplitude n Compound amplitude n […]

METTL3 [1] = biological target: T1, METTL3 (Homo sapiens, UniProt Q86U44); assay: Cellular degradation assay (Western blot), METTL3 in MOLM-13; type: cell-based
T1 construct: METTL3–14 degradation up to 70% of the endogenous level; endogenous in cells; host or cells: MOLM-13, PC3, DU145
T1 sequence (Q86U44 2-580 limits assumed): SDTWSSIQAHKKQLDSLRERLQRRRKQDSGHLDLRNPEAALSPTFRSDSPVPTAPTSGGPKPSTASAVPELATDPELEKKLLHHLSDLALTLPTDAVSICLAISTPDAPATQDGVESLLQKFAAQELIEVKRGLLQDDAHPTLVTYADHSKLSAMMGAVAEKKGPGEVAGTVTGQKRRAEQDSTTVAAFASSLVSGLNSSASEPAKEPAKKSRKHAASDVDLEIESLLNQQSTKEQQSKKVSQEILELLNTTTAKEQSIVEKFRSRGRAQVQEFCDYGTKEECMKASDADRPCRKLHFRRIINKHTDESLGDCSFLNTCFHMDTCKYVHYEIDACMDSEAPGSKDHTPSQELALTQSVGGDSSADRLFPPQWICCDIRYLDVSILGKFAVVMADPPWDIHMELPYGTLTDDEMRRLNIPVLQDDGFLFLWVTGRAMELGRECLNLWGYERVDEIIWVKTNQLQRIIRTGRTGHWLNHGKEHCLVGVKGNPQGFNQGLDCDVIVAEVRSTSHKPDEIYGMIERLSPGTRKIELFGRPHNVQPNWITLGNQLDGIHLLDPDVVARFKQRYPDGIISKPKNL
T1 sequence (Q9HCE5 whole entry partner): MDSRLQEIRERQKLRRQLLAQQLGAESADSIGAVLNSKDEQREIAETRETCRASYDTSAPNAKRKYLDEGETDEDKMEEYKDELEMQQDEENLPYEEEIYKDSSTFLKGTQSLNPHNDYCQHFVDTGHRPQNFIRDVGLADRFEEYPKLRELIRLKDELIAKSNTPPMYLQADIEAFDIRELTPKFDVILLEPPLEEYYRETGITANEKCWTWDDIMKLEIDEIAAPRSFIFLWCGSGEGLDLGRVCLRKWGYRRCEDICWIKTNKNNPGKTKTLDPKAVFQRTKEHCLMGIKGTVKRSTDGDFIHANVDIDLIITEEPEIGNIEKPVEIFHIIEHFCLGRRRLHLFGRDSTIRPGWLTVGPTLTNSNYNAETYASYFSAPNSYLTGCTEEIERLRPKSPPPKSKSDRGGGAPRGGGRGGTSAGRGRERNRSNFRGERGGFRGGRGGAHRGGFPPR
Method in brief: (§6)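 Treat cells 24h with PROTAC (vehicle: 0.1% DMSO); lyse in RIPA with protease inhibitors; run SDS-PAGE and immunoblot METTL3/METTL14; quantify bands by densitometry.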

METTL14 = assay: Cellular degradation assay (Western blot), METTL14 in MOLM-13; type: cell-based, human; conditions: MOLM-13, 24 h, 2 μM compound
Method in brief: as §6

[2] = biological target: T2, ternary complex CRBN/PROTAC/METTL3–14 (Homo sapiens, UniProt Q86U44+Q96SW2); assay: FRET-based ternary complex formation assay (TCFA); type: binding
T2 construct: methyltransferase domains (MTD) of METTL3 (residues 354–580); His6 (N, cleaved yes); made in house; host or cells: METTL3-MTD/METTL14-MTD: baculovirus/Sf9; CRBN-TBD: E. coli Rosetta (DE3), co-expressed with BirA
T2 sequence (Q86U44 354-580): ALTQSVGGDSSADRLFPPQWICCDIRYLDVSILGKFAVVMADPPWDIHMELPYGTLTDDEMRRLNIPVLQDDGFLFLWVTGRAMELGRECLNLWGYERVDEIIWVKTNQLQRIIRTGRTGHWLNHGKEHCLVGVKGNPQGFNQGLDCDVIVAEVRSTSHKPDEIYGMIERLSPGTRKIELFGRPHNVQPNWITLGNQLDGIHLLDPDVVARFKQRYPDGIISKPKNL
T2 sequence (Q9HCE5 107-395 partner limits assumed): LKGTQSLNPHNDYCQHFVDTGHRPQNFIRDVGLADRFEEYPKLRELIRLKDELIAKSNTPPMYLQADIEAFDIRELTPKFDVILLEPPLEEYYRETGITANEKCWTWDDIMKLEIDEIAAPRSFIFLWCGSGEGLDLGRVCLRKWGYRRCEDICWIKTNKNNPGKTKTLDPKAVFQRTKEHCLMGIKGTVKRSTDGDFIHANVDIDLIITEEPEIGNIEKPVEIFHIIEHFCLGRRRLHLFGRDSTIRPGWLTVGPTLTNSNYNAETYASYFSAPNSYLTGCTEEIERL
T2 sequence (Q96SW2 318-442): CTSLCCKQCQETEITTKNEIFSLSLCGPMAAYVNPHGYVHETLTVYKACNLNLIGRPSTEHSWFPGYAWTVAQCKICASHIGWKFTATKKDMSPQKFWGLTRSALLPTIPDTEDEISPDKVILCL
Method in brief: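 HTRF/TR-FRET measurement of PROTAC-induced complex between GST-tagged METTL3–14 and biotinylated CRBN^TBD-Avi (10 nM final) with 0.8 nM Eu^3+ anti-GST antibody, in 50 mM HEPES pH 7.5, 150 mM NaCl, 0.1% BSA, 100 mM KF. Emission ratio used; ECmax and Hook-curve amplitude taken from Gaussian fit or highest-signal data point.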

[3] = Cell viability assay (CellTiter-Glo) on MOLM-13; type: cell-based; conditions: human, MOLM-13 cells, average of two biological replicates
Method in brief: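 MOLM-13 AML cells grown in RPMI 1640 with 10% FBS at 37 °C, 5% CO2. Viability read as ATP luminescence by CellTiter-Glo after 10 min at room temperature, with background from cell-free medium wells subtracted.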

METTL3-14 [4] = biological target: T3, METTL3-14 (Homo sapiens, UniProt Q86U44); assay: Cellular degradation assay (Western blot), METTL3 and/or METTL14 (METTL3–14) in MOLM-13; type: cell-based; set-up: METTL3–14 degradation up to 70% of the endogenous level; endogenous in cells; host or cells: MOLM-13, KASUMI-1, THP-1, NOMO-1; conditions: for degradation of METTL3 and/or METTL14: MOLM-13, 2 μM, 24 h, Western blot
Protocol: MOLM-13, NOMO-1, THP-1, Kasumi-1, PC3, and DU145 cell lines were obtained from DSMZ-German Collection of Microorganisms and Cell Cultures GmbH. […] All cell lines were tested negative for mycoplasma contamination (PCR-based assay by Microsynth, Switzerland).
METTL3 (and METTL14) protein degradation was monitored by Western blot. Cells were treated with the indicated concentration of PROTACs or DMSO control (0.1% (v/v)) for 24h, 37 °C with 5% CO2. […] After SDS-PAGE, proteins were transferred to a nitrocellulose membrane, blocked (with 5% milk, 0.5% BSA in TBST buffer), and incubated overnight with primary antibodies. […] Densitometry was performed in Image Studio Lite software and analyzed in GraphPad Prism 9.
Target sequence in this assay (Q86U44 2-580 limits assumed): as the sequence (Q86U44 2-580 limits assumed) above
Target sequence in this assay (Q9HCE5 whole entry partner): as the sequence (Q9HCE5 whole entry partner) above

METTL3-14 [5] = biological target: T3, METTL3-14; assay: Protein methyltransferases selectivity profile; type: biochemical
Source text: as §1, §2, §3, §4, §5

SETD2 = SETD2 (Homo sapiens, UniProt Q9BYW2); assay: Protein methyltransferases selectivity profile; type: biochemical; conditions: control compound
SETD2, sequence (Q9BYW2 whole entry, species assumed): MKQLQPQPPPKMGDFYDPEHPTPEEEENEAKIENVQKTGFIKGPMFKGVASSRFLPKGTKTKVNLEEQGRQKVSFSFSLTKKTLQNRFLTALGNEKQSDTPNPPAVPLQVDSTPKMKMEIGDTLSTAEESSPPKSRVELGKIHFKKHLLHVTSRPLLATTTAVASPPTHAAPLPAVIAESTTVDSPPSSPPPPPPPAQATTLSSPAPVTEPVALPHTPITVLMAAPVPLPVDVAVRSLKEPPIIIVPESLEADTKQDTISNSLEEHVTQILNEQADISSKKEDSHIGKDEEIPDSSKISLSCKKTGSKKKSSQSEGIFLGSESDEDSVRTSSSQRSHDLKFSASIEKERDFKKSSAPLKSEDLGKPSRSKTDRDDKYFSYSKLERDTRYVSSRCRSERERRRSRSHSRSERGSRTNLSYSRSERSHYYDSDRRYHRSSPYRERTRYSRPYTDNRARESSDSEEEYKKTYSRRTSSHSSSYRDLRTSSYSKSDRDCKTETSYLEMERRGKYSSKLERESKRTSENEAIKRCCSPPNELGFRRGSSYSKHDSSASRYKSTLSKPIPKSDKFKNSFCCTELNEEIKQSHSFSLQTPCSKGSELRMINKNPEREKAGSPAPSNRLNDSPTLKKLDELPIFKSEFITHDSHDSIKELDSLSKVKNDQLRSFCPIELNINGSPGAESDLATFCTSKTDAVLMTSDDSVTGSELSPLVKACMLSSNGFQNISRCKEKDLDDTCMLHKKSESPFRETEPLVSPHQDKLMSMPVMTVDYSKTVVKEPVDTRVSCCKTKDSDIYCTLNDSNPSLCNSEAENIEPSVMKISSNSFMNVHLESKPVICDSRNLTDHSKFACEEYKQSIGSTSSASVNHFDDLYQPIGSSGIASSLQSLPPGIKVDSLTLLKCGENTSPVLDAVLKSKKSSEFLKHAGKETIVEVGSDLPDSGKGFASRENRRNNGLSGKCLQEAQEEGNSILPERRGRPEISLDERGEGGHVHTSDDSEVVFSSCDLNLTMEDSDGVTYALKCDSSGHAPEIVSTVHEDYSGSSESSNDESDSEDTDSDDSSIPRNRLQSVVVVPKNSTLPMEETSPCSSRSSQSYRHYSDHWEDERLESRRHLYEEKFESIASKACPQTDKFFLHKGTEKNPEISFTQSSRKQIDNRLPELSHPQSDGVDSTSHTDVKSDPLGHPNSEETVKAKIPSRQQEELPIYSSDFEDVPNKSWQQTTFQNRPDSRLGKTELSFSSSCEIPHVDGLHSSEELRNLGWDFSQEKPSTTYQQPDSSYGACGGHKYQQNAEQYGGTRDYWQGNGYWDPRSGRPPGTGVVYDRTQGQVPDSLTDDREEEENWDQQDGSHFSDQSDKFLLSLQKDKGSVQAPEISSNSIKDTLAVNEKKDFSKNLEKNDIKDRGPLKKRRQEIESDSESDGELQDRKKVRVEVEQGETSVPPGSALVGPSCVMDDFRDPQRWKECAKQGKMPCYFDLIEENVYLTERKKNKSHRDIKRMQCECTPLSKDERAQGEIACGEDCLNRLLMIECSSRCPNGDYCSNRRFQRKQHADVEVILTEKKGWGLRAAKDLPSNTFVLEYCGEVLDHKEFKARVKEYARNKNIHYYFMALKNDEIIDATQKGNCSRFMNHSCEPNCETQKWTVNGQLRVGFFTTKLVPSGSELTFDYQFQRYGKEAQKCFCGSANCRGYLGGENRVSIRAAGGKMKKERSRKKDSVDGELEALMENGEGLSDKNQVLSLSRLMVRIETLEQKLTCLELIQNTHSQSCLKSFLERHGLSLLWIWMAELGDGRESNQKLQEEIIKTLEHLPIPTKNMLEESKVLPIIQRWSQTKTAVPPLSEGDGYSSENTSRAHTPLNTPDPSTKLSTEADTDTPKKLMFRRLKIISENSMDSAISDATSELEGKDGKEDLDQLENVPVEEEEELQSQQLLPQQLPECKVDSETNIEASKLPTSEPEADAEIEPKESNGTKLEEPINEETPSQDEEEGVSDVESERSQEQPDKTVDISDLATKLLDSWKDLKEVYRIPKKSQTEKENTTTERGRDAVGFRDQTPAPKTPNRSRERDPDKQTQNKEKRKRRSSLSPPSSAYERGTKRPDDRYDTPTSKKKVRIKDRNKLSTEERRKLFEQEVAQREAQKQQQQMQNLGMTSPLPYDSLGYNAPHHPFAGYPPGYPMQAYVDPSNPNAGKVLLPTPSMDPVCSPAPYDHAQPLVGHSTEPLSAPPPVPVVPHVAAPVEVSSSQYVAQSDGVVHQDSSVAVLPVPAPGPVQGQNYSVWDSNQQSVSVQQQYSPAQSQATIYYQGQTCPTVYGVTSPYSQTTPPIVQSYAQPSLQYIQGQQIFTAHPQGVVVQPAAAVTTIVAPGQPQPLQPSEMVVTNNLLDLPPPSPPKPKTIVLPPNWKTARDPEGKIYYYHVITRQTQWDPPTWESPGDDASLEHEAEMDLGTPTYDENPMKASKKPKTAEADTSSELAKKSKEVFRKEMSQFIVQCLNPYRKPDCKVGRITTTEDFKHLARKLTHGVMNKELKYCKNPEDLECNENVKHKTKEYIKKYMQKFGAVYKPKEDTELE
Source text: as §1, §2, §3, §4, §5

SMYD3 = SMYD3 (Homo sapiens, UniProt Q9H7B4); assay: Protein methyltransferases selectivity profile; type: biochemical; conditions: control compound
Source text: as §1, §2, §3, §4, §5

PC3 cell line = assay: Cell viability assay (CellTiter-Glo) on PC3; type: cell-based, human
Protocol: MOLM-13, NOMO-1, THP-1, Kasumi-1, PC3, and DU145 cell lines were obtained from DSMZ-German Collection of Microorganisms and Cell Cultures GmbH. Cells were cultured in RPMI 1640 medium (11875093, Thermo Fisher Scientific) containing 10% FBS (16140071, Thermo Fisher Scientific) and 1% penicillin-streptomycin (15140122, Thermo Fisher Scientific) in 5% CO2 at 37 °C in a humidified incubator, with maintained cell densities at 0.5–1 × 10^6 cells/mL. All cell lines were tested negative for mycoplasma contamination (PCR-based assay by Microsynth, Switzerland).
Cells were seeded in white clear-bottom 96-well plates at a density of 6–20 × 10^3 cells/well in 50 μL of the complete RPMI medium and treated with 50 μL of increasing concentrations of the indicated compounds dissolved in DMSO (final concentration of compounds 0.01–10 μM) or DMSO only as a negative control (0.01% (v/v)) and incubated for 72 h at 37 °C with 5% CO2. Cell viability was determined using a CellTiter-Glo luminescent cell viability assay (Promega) based on the detection of ATP according to the manufacturer’s instructions. 100 μL of the reagent was added to each well and incubated for 10 min at room temperature. The luminescence was recorded using a Tecan Infinite […] M1000 microplate reader from the top. Background luminescence value was obtained from wells containing the CellTiter-Glo reagent and medium without cells. The resulting data was analyzed in GraphPad Prism 9.

METTL3 [6] = biological target: T1, METTL3; assay: Cellular thermal shift assay (CETSA) in MOLM-13, METTL3; type: cell-based; conditions: MOLM-13, 54 °C
Protocol: One million of MOLM-13 cells were suspended in 100 μL of PBS (10010023, Thermo Fisher Scientific) containing 2× protease inhibitor cocktail (11697498001, Roche), for each condition tested. Cells were incubated with compounds or DMSO control (1% (v/v)) for 1 h at 37 °C. They were then heat treated at 54 °C in a thermoblock for 3 min, followed by cooling to room temperature (3 min). Next, samples were lysed by threefreeze–thaw cycles in liquid nitrogen and centrifuge at 16000 g for 30 min, 4 °C. Equal volumes of control and tested samples (12 μL) were analyzed by Western blot. The changes in the amount of METTL3 protein (after normalization for β-actin and/or GAPDH) were monitored by performing densitometry in Image Studio Lite software and analyzed in GraphPad Prism 9.

Cereblon (CRBN) = biological target: T4, Cereblon (CRBN) (Homo sapiens, UniProt Q96SW2); assay: Cellular thermal shift assay (CETSA) in MOLM-13, Cereblon; type: cell-based; conditions: MOLM-13, 54 °C
T4 construct: endogenous in cells; host or cells: MOLM-13
T4 sequence (Q96SW2 whole entry): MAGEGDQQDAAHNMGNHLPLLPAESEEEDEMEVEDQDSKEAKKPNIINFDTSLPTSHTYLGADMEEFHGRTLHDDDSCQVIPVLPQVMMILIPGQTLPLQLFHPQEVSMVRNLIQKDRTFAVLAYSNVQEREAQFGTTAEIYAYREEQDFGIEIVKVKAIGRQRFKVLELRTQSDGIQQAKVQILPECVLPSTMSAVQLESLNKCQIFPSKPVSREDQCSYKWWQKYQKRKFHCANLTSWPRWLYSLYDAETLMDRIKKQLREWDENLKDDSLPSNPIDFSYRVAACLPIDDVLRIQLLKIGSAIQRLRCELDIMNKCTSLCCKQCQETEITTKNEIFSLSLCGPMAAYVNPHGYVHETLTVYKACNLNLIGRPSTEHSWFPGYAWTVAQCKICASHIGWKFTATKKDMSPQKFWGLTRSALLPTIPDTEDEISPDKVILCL

METTL3 [7] = biological target: T5, METTL3 (Homo sapiens, UniProt Q86U44+Q96SW2); assay: In vitro ubiquitination assay, METTL3; type: biochemical; conditions: 2, 8, and 32 μM, 30 °C, 2 h
T5 construct: Human full-length METTL3-METTL14 was expressed and purified as described above; Human full-length cereblon-DDB1 and 6xHis-CUL4A-6xHis-RBX1 were coexpressed; StrepII (N); GFP (N); TEV site (N); made in house; host or cells: baculovirus/Sf9 insect cells (METTL3-METTL14, cereblon-DDB1, CUL4A-RBX1)
Protocol: For the cell-free in vitro ubiquitination of METTL3-METTL14 purified E1, E2, ubiquitin, CUL4A-RBX1, Cereblon-DDB1, and METTL3-METTL14 were used. Human full-length METTL3-METTL14 was expressed and purified as described above. […] Purified recombinant human UBE1 E1 (E-305–025) was purchased from R&D Systems, UbcH5a E2 (23–029) from Merck and ubiquitin (SBB-UP0013) from South Bay Bio. For the ubiquitination reaction, components were mixed to final concentrations of 0.06 μM UBE1, 1.96 μM UbcH5a, 39 μM ubiquitin, 0.33 μM CUL4A-RBX1, 0.33 μM Cereblon-DDB1, 0.5 μM METTL3-METTL14, and different concentrations of compound 14 or me-14 (0, 2, 8, or 32 μM) in reaction buffer (50 mM Tris-HCl pH 7.6, 5 mM MgCl2, 0.2 mM CaCl2, 1 mM DTT, 100 mM NaCl, 0.01% BSA, 0.01% Triton X-100). The final reaction volume was 15 μL. After the addition of 2 mM ATP (or the equal volume of water for the control without ATP), the reaction mixture was incubated for 2 h at 30 °C. […] The signals were quantified by using the Image Studio Lite software. To determine the percentage of ubiquitinated METTL3, the fraction of unmodified METTL3 was calculated by dividing the signal of the band assigned to unmodified METTL3 by the signal of the area containing both the unmodified and (poly)ubiquitinated METTL3 and normalizing to the control without ATP. […]

[8] = biological target: His-GST-METTL3^MTD-METTL14^MTD (human) (UniProt Q86U44)
His-GST-METTL3^MTD-METTL14^MTD (human), sequence (Q86U44 354-580, chain 1 of 2): as the sequence (Q86U44 354-580) above
His-GST-METTL3^MTD-METTL14^MTD (human), sequence (chain, as listed by the source, chain 2 of 2): as the sequence (Q9HCE5 107-395 partner limits assumed) above

## CN1C(=O)[C@@]23C[C@]4([C@]56C[C@@]78SS[C@@](CO)(C(=O)N7[C@H]5Nc5ccccc56)N(C)C8=O)c5ccccc5N[C@@H]4N2C(=O)[C@]1(CO)SS3 [Chaetocin]
PRDM9
  IC50: 0.905 µM

## CC1(C)CCN(Cc2cc(F)c(N3CC(=O)NC4(CCN(c5cc(NCCN6CCN(c7cnc(N8CCN(C(=O)CCCNc9cccc%10c9C(=O)N(C9CCC(=O)NC9=O)C%10=O)CC8)nc7)CC6)ncn5)CC4)C3)cc2F)CC1 (stereo not shown) [Compound 33]
METTL3 [1]; MOLM-13, 24 h, 2 μM compound
  MOLM-13 West. blot at 24h 2 μM comp conc. Degradation (%) of METTL3: 44% and 44 ± 6%
METTL14
  MOLM-13 West. blot at 24h 2 μM comp conc. Degradation (%) of METTL14: 51 ± 19%
[2]; Hook curve amplitude, fraction of the maximum of compound 16
  TCFA amplitude (mean ± SEM): 0.8 ± 0.1
[2]; PROTAC concentration at the maximum of the signal in the TCFA
  ECmax (nM) ± SD: 70 ± 10 nM
[3]; 0.6 µM
  viability at 72 h, 0.6 µM: 92.1%
[3]; 1.25 µM
  viability at 72 h, 1.25 µM: 90.9%
[3]; 2.5 µM
  viability at 72 h, […]: 95.3%
[3]; 5 µM
  viability at 72 h, 5 µM: 97.7%
[3]; 10 µM
  viability at 72 h, 10 µM: 89.6%
METTL3-14 [4]
  degradation of METTL3 and/or METTL14: at least 50%

## Nc1ncnc2c1ncn2[C@@H]1O[C@H](CSCC[C@H](N)C(=O)O)[C@@H](O)[C@H]1O [SAH, S-(5’-adenosyl)-L-homocysteine]
METTL3-14 [5]
  IC50: 0.153 µM
SETD2
  IC50: 1.38 µM
SMYD3
  IC50: 8.48 µM

## CNc1cc(N2CCC3(CC2)CN(c2cc(F)c(CN4CCC(C)(C)CC4)cc2F)CC(=O)N3)ncn1 [UZH2, reference compound]
[2]
  activity / signal in the ternary complex formation assay: no activity
PC3 cell line
  antiproliferative effect: not
METTL3-14 [4]; MOLM-13, 10 μM UZH2 control without PROTAC
  METTL3–14 levels: elevated levels of METTL3–14

## CN1C(=O)CCC(N2C(=O)c3cccc(NCCCC(=O)NCc4cccc(CNc5cc(N6CCC7(CC6)CN(c6cc(F)c(CN8CCC(C)(C)CC8)cc6F)CC(=O)N7)ncn5)c4)c3C2=O)C1=O (stereo not shown) [me-14]
METTL3 [1]; MOLM-13, 10 μM
  METTL3 levels: increased METTL3 levels
METTL3 [6]
  stabilization of METTL3 (CETSA): stabilize METTL3 in a concentration-dependent manner; also recorded: stabilization of METTL3
Cereblon (CRBN)
  stabilization of Cereblon (CETSA): not of CRBN
METTL3 [7]
  ubiquitination of METTL3 compared to the control without compound: does not increase
METTL3-14 [4]
  degradation of METTL3 and/or METTL14: did not show any METTL3–14 degradation
METTL3-14 [4]; MOLM-13, five concentrations
  degradation of METTL3 and METTL14, concentration dependence: no degradation

## CRBN^TBD-Avi(biotin) (from UniProt Q96SW2 318-442) (domain or fragment)
[8]
  degradation of METTL3 and METTL14 in MOLM-13 cells (Western blot) with PROTAC 30 at five concentrations; Hook effect: 60%
  degradation of METTL3 in MOLM-13 cells (Western blot) with PROTAC 14 at five concentrations; Hook effect: 50%
